From US20260240869A1, “ANTIPSEUDOMONAL FUSIDIC ACID COMPOUNDS” (priority 2022, published 2026) come the findings set out here.

One assay relates to P. aeruginosa PA14. The assay can be described thus: MIC, P. aeruginosa PA14. The format is cell-based, Pseudomonas aeruginosa. The settings on record: Pseudomonas aeruginosa. The procedure: (§1) Antimicrobial Susceptibility Tests. Susceptibility testing was performed in biological triplicate, using the microdilution broth method as outlined by the Clinical and Laboratory Standards Institute. Bacteria were cultured with cation-adjusted Meuller-Hinton broth (Sigma-Aldrich; catalogue number: 90922) or Luria-Bertani (LB) broth (Lennox) in round-bottom 96-well plates (Corning; catalogue number: 3788).

Assay [1] relates to FA resistance mutants of P. aeruginosa PAO1 A6. The assay can be described thus: MIC in FA-resistant mutants. In kind it is cell-based, Pseudomonas aeruginosa. The settings on record: mutants generated in PAO1 A6. The method, then:
as §1
Selection ofresistant mutants. Resistant mutants were selected using the large inoculum method. […] Colonies were visible after incubating at 37° C. for 72 h.

In assay [2] the test system is P. aeruginosa PAO1. The assay can be described thus: LC-MS/MS whole-cell accumulation assay, P. aeruginosa PAO1. The format is cell-based, Pseudomonas aeruginosa. The settings on record: for PA Accumulation (FA): P. aeruginosa PAO1, accumulation of FA reported (Table 8). The procedure:
(§2) Accumulation Assay. The accumulation assay was performed in triplicate in batches of ten samples, with each batch containing tetracycline or ciprofloxacin as a positive control. P. aeruginosa PAO1, PAO1 A6, PA14, PA14 A40, and PA1280, and E. coli MG1655 were used in these experiments. For each replicate, 2.5 mL (E. coli) or 5 mL (P. aeruginosa) of an overnight culture was diluted into 250 mL of fresh Luria-Bertani broth (Lennox) or Tryptic Soy Broth (TSB) and grown at 37° C. with shaking to an optical density (OD600) of 0.55-0.60. The bacteria were pelleted at 3220 r.c.f. for 10 min at 4° C., and the supernatant was discarded. The pellets were resuspended in 40 mL of phosphate buffered saline (PBS) and pelleted as before, and the supernatant was discarded. The pellets were resuspended in 8.8 mL of fresh PBS and aliquoted into ten, 1.5 mL Eppendorf tubes (875 μL each). The number of colony-forming units (CFUs) was determined by a calibration curve. The samples were equilibrated at 37° C. with shaking for 5 min; compound was added (final concentration=50 μM), and then the samples were incubated at 37° C. with shaking for either 10 min. These time points were short enough to minimize metabolic and growth changes (no changes in OD600 or CFU count observed). After incubation, 800 μL of the cultures was carefully layered on 700 μL of silicone oil (9:1 AR20/Sigma High Temperature, cooled to −78° C.). Bacteria were pelleted through the oil by centrifuging at 13 000 r.c.f. for 2 min at room temperature (with the supernatant remaining above the oil); the supernatant and oil were then removed by pipetting. To lyse the samples, each pellet was dissolved in […] of water, and then, they were subjected to three (E. coli) or four (P. aeruginosa) freeze-thaw cycles of 3 min in liquid nitrogen followed by 3 min in a water bath at 65° C. P. aeruginosa samples were then treated with 50 µM DNase and RNase and incubated at 37° C. for 15 minutes. The lysates were pelleted at 13 000 r.c.f. for 2 min at room temperature, and the supernatant was collected ([…]). The debris was resuspended in 100 μL of methanol and pelleted as before. The supernatants were removed and combined with the previous supernatants collected. Finally, the remaining debris was removed by centrifuging at 20 000 r.c.f. for 10 min at room temperature. Supernatants were analyzed by LC-MS/MS.
(§3) Samples were analyzed with the 5500 QTRAP LC/MS/MS system (AB Sciex) with a 1200 series HPLC system (Agilent Technologies) including a degasser, an autosampler, and a binary pump. Liquid chromatography separation was performed on an Agilent SB-Aq column (4.6×50 mm, 5 μm) (Agilent Technologies) with mobile phase A (0.1% formic acid in water) and mobile phase B (0.1% formic acid in acetonitrile). The flow rate was 0.3 mL/min. The linear gradient was as follows: 0-3 min, 100% mobile phase A; 10-15 min, 2% mobile phase A; 15.5-21 min, 100% mobile phase A. The autosampler was set at 5° C. The injection volume was 15 μL. Mass spectra were acquired with both positive electrospray ionization at the ion spray voltage of 5500 V and negative electrospray ionization at the ion spray voltage of −4500 V. The source temperature was 450° C. The curtain gas, ion source gas 1, and ion source gas 2 were 33, 50, and 65, respectively. Multiple reaction monitoring was used to quantify the metabolites. Power analysis was not used to determine the number of replicates. Error bars represent the standard error of the mean of three biological replicates. The statistical significance of the accumulation was determined using a two sample Welch's t test (one-tailed test, assuming unequal variance) relative to the negative controls. All compounds evaluated in the biological assays were >95% pure.
MBN assay. Assays measuring permeabilization by polymyxin B nonapeptide (PMBN) were performed as above, with the addition of 8 μg/mL PMBN immediately before the compound of interest was added.

Another assay relates to E. coli MG1655. Put plainly: LC-MS/MS whole-cell accumulation assay, E. coli MG1655. In kind it is cell-based. The conditions noted are these: E. coli MG1655; accumulation of FA reported (Table 8). The procedure: as §2, §3
Assay [3] relates to P. aeruginosa PAO1. The assay can be described thus: NPN outer membrane permeability assay. In kind it is cell-based, Pseudomonas aeruginosa. The conditions noted are these: treatment for ten minutes. The text has this: Further, the fluorescent probe N-phenylnapthylamine (NPN) was used to assess outer membrane permeability changes upon treatment with FA, gentamicin, and FA prodrug. NPN is membrane impermeable and is only weakly fluorescent in aqueous solutions. Upon entry to the cell and interacting with phospholipids, significant fluorescence is observed. […] This residual membrane depolarizing antibacterial activity can be observed in the FA polyamine (FIG. 4a) and the diacylated compound (Table 9).

In assay [4] the test system is P. aeruginosa PAO1. The assay can be described thus: DiSC3 (5) inner membrane depolarization assay. In kind it is cell-based, Pseudomonas aeruginosa.

By MIC is commonly meant the least concentration at which growth counts as inhibited.

Read-outs that look alike come from different tables or passages of the source. Bounds are passed on as bounds.

The compound `CC(=O)O[C@H]1C[C@@]2(C)[C@@H](C[C@@H](O)[C@H]3[C@@]4(C)CC[C@@H](O)[C@@H](C)[C@@H]4CC[C@@]32C)/C1=C(\CCC=C(C)C)C(=O)O/N=C(\N)CNCCCNCCCNCCCN` [FA prodrug, (3R, 4S,5S,8S,9S,10S,11R,13R,14S,16S,Z)-17-((Z)-1,14-diamino-22-methyl-17-oxo-16-oxa-4,8,12,15-tetraazatricosa-14,21-dien-18-ylidene)-3,11-dihydroxy-4,8,10,14-tetramethylhexadecahydro-1H-cyclopenta[a]phenanthren-16-yl acetate] showed an MIC against P. aeruginosa PA14 (PA14) of 8 µg/mL. For the same compound, the “MIC fold change in FA-resistant strains” value in assay [1] is given as “several fold change”. In addition, the “PA Accumulation (FA)” value in the assay on P. aeruginosa PAO1 [2] is given as 3396 ± 122 nmol/1012 CFUs. The “EC Accumulation (FA)” value with E. coli MG1655 came to 3337 ± 175 nmol/1012 CFUs. Also, the “NPN fluorescence (outer membrane permeability)” value in the assay on P. aeruginosa PAO1 [3] was “dose-dependent increase”. Moreover, the “inner membrane depolarization (DiSC3 (5) fluorescence)” value with P. aeruginosa PAO1 [4] was “dose-dependent inner membrane depolarization”.

As to `CC(=O)O[C@H]1C[C@@]2(C)[C@@H](C[C@@H](O)[C@H]3[C@@]4(C)CC[C@@H](O)[C@@H](C)[C@@H]4CC[C@@]32C)/C1=C(\CCC=C(C)C)C(=O)O` [FA, Fusidic acid], in the assay on P. aeruginosa PA14 (Reference strain PA14 (Table 11), read-out: MIC), the MIC is more than 1020 µg/mL. In addition, the “MIC fold change in FA-resistant strains” value in assay [1] was 32-128 ×. Also, the “accumulation in PAO1 (in words)” value in the assay on P. aeruginosa PAO1 [2] (FIG. 1a / FIG. 5) is “does not accumulate”. Further, the “PA Accumulation (FA)” value in the assay on P. aeruginosa PAO1 [2] is 80 ± 7 nmol/1012 CFUs. In addition, the “change of accumulation upon membrane permeabilization” value in the assay with P. aeruginosa PAO1 [2] (treatment with PMBN, FIG. 1b) is reported as “significant increase in accumulation”. The “EC Accumulation (FA)” value in the assay on E. coli MG1655 was determined as 52 ± 5 nmol/1012 CFUs. In addition, in the assay with P. aeruginosa PAO1 [3], the “NPN fluorescence (outer membrane permeability)” value was “did not lead to any change in fluorescence”. Moreover, the “inner membrane depolarization (DiSC3 (5) fluorescence)” value with P. aeruginosa PAO1 [4] was “did not impact membrane polarization”.
